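All cell lines were grown in 96-well plates and treated with compound for 48 hours. GI50 = concentration required for 50% inhibition of growth. TGI denotes the concentration required for complete inhibition of growth.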
Legend:
Assay in all cases: NCI-60 cell line screen, 48 h
M14 melanoma = test system: M14 melanoma
TK-10 renal = test system: TK-10 renal
RPMI-8226 leukemia = test system: RPMI-8226 leukemia
U251 CNS = test system: U251 CNS
DU-145 prostate = test system: DU-145 prostate
HL-60(TB) leukemia = test system: HL-60(TB) leukemia
K-562 leukemia = test system: K-562 leukemia
786-0 renal = test system: 786-0 renal
LOX IMVI melanoma = test system: LOX IMVI melanoma
NCI-H460 lung = test system: NCI-H460 lung
UACC-62 melanoma = test system: UACC-62 melanoma
NCI/ADR-RES ovarian = test system: NCI/ADR-RES ovarian
BT-549 breast = test system: BT-549 breast
OVCAR-3 ovarian = test system: OVCAR-3 ovarian
ACHN renal = test system: ACHN renal
SN12C renal = test system: SN12C renal
RXF 393 renal = test system: RXF 393 renal
SK-MEL-5 melanoma = test system: SK-MEL-5 melanoma
HT29 colon = test system: HT29 colon
HCT-116 colon = test system: HCT-116 colon
OVCAR-5 ovarian = test system: OVCAR-5 ovarian
HOP-62 NSCLC = test system: HOP-62 NSCLC
HOP-92 NSCLC = test system: HOP-92 NSCLC
HCC-2998 colon = test system: HCC-2998 colon
IGROV1 ovarian = test system: IGROV1 ovarian
SK-MEL-2 melanoma = test system: SK-MEL-2 melanoma
SK-OV-3 ovarian = test system: SK-OV-3 ovarian
NCI-H23 lung = test system: NCI-H23 lung
CCRF-CEM leukemia = test system: CCRF-CEM leukemia
OVCAR-4 ovarian = test system: OVCAR-4 ovarian
T-47D breast = test system: T-47D breast
UO-31 renal = test system: UO-31 renal
HCT-15 colon = test system: HCT-15 colon
CAKI-1 renal = test system: CAKI-1 renal
SNB-75 CNS = test system: SNB-75 CNS
SK-MEL-28 melanoma = test system: SK-MEL-28 melanoma
MOLT-4 leukemia = test system: MOLT-4 leukemia
NCI-H226 lung = test system: NCI-H226 lung
NCI-H522 lung = test system: NCI-H522 lung
UACC-257 melanoma = test system: UACC-257 melanoma
A549 NSCLC = test system: A549 NSCLC
MALME-3M melanoma = test system: MALME-3M melanoma
MCF7 breast = test system: MCF7 breast
HS 578T breast = test system: HS 578T breast
SNB-19 CNS = test system: SNB-19 CNS
MDA-MB-231 breast = test system: MDA-MB-231 breast
KM12 colon = test system: KM12 colon
SF-539 CNS = test system: SF-539 CNS
A498 renal = test system: A498 renal
OVCAR-8 ovarian = test system: OVCAR-8 ovarian
MDA-MB-435 = test system: MDA-MB-435
SF-295 CNS = test system: SF-295 CNS
PC-3 prostate = test system: PC-3 prostate
SW-620 colon = test system: SW-620 colon
COLO 205 colon = test system: COLO 205 colon
SF-268 CNS = test system: SF-268 CNS

SMILES: O=C(c1ccc(Cl)cc1)c1no[n+]([O-])c1C(=O)c1ccc(Cl)cc1
- GI50 (M14 melanoma): 13.3 µM
- TGI (M14 melanoma): 27.2 µM
- GI50 (TK-10 renal): 15 µM
- TGI (TK-10 renal): 28.3 µM
- GI50 (RPMI-8226 leukemia): 4.6 µM
- TGI (RPMI-8226 leukemia): 24.4 µM
- GI50 (U251 CNS): 15.8 µM
- TGI (U251 CNS): 30.2 µM
- GI50 (DU-145 prostate): 17 µM
- TGI (DU-145 prostate): 31 µM
- GI50 (HL-60(TB) leukemia): 6.06 µM
- TGI (HL-60(TB) leukemia): 20.7 µM
- GI50 (K-562 leukemia): 5.32 µM
- TGI (K-562 leukemia): 31.8 µM
- GI50 (786-0 renal): 3.97 µM
- TGI (786-0 renal): 13.7 µM
- GI50 (LOX IMVI melanoma): 1.79 µM
- TGI (LOX IMVI melanoma): 3.59 µM
- GI50 (NCI-H460 lung): 23.6 µM
- TGI (NCI-H460 lung): 63 µM
- GI50 (UACC-62 melanoma): 13.7 µM
- TGI (UACC-62 melanoma): 27.3 µM
- GI50 (NCI/ADR-RES ovarian): 20.5 µM
- TGI (NCI/ADR-RES ovarian): 49.8 µM
- GI50 (BT-549 breast): 9.21 µM
- TGI (BT-549 breast): 22 µM
- GI50 (OVCAR-3 ovarian): 6.6 µM
- TGI (OVCAR-3 ovarian): 14.5 µM
- GI50 (ACHN renal): 5.69 µM
- TGI (ACHN renal): 17.9 µM
- GI50 (SN12C renal): 13 µM
- TGI (SN12C renal): 28.3 µM
- GI50 (RXF 393 renal): 11.5 µM
- TGI (RXF 393 renal): 23.8 µM
- GI50 (SK-MEL-5 melanoma): 15.9 µM
- TGI (SK-MEL-5 melanoma): 30.5 µM
- GI50 (HT29 colon): 11.2 µM
- TGI (HT29 colon): 26.4 µM
- GI50 (HCT-116 colon): 10.7 µM
- TGI (HCT-116 colon): 27.4 µM
- GI50 (OVCAR-5 ovarian): 16.5 µM
- TGI (OVCAR-5 ovarian): 35.3 µM
- GI50 (HOP-62 NSCLC): 28.5 µM
- TGI (HOP-62 NSCLC): > 74.7 µM
- GI50 (HOP-92 NSCLC): 1.77 µM
- TGI (HOP-92 NSCLC): 4.26 µM
- GI50 (HCC-2998 colon): 21 µM
- TGI (HCC-2998 colon): 44.8 µM
- GI50 (IGROV1 ovarian): 3.87 µM
- TGI (IGROV1 ovarian): 10.3 µM
- GI50 (SK-MEL-2 melanoma): 14.9 µM
- TGI (SK-MEL-2 melanoma): 28.7 µM
- GI50 (SK-OV-3 ovarian): 21 µM
- TGI (SK-OV-3 ovarian): 42.9 µM
- GI50 (NCI-H23 lung): 16.5 µM
- TGI (NCI-H23 lung): 40.9 µM
- GI50 (CCRF-CEM leukemia): 2 µM
- TGI (CCRF-CEM leukemia): 4.75 µM
- GI50 (OVCAR-4 ovarian): 13.3 µM
- TGI (OVCAR-4 ovarian): 27.5 µM
- GI50 (T-47D breast): 13.1 µM
- TGI (T-47D breast): 43.1 µM
- GI50 (UO-31 renal): 1.64 µM
- TGI (UO-31 renal): 3.2 µM
- GI50 (HCT-15 colon): 12.6 µM
- TGI (HCT-15 colon): 31 µM
- GI50 (CAKI-1 renal): 4.58 µM
- TGI (CAKI-1 renal): 12.2 µM
- GI50 (SNB-75 CNS): 15 µM
- TGI (SNB-75 CNS): 29 µM
- GI50 (SK-MEL-28 melanoma): 14.1 µM
- TGI (SK-MEL-28 melanoma): 27.8 µM
- GI50 (MOLT-4 leukemia): 4.73 µM
- TGI (MOLT-4 leukemia): 22.1 µM
- GI50 (NCI-H226 lung): 15.8 µM
- TGI (NCI-H226 lung): 31.1 µM
- GI50 (NCI-H522 lung): 1.74 µM
- TGI (NCI-H522 lung): 3.37 µM
- GI50 (UACC-257 melanoma): 14.5 µM
- TGI (UACC-257 melanoma): 27.8 µM
- GI50 (A549 NSCLC): 23.5 µM
- TGI (A549 NSCLC): 62.1 µM
- GI50 (MALME-3M melanoma): 2.18 µM
- TGI (MALME-3M melanoma): 4.2 µM
- GI50 (MCF7 breast): 11.3 µM
- TGI (MCF7 breast): 31.7 µM
- GI50 (HS 578T breast): 21.2 µM
- TGI (HS 578T breast): 68.2 µM
- GI50 (SNB-19 CNS): 32.7 µM
- TGI (SNB-19 CNS): > 95.8 µM
- GI50 (MDA-MB-231 breast): 10.9 µM
- TGI (MDA-MB-231 breast): 26.8 µM
- GI50 (KM12 colon): 20.3 µM
- TGI (KM12 colon): 45.6 µM
- GI50 (SF-539 CNS): 3.24 µM
- TGI (SF-539 CNS): 8.17 µM
- GI50 (A498 renal): 16.4 µM
- TGI (A498 renal): 36.4 µM
- GI50 (OVCAR-8 ovarian): 14.5 µM
- TGI (OVCAR-8 ovarian): 33.8 µM
- GI50 (MDA-MB-435): 13.5 µM
- TGI (MDA-MB-435): 26.8 µM
- GI50 (SF-295 CNS): 14.3 µM
- TGI (SF-295 CNS): 29 µM
- GI50 (PC-3 prostate): 8.76 µM
- TGI (PC-3 prostate): 22 µM
- GI50 (SW-620 colon): 11.8 µM
- TGI (SW-620 colon): 25.1 µM
- GI50 (COLO 205 colon): 14.6 µM
- TGI (COLO 205 colon): 34.3 µM
- GI50 (SF-268 CNS): 14.1 µM
- TGI (SF-268 CNS): 33.2 µM

Reference: PubChem BioAssay (NCI)
